# Measurements reported in publication PMC12278645, “Design, synthesis, and antitumor activity of novel thioheterocyclic nucleoside derivatives by suppressing the c-MYC pathway” (Acta Pharmaceutica Sinica. B, 2025).
# Read-outs that look alike come from different tables or passages of the source.
# Columns and labels:
# Acute toxicity assay = type: in vivo; conditions: for Death rate: 10 mice; for Number of dead mice: of 5
# Description: SPF BALB/c mice were divided into […] randomly (n = 10, 5 male, and 5 female) and injected intraperitoneally with defined dosages of compound 33a (90, 260, 350, 450, 600, and 800 mg/kg) or dilute (DMSO: castor oil: PBS = 1:2:7, v/v/v). The mice were observed continuously for 14 days after administration. The number of mortalities during the experiment was recorded, and the statistical result of the experimental endpoint was used to calculate LD50.
# [1] = Tissue distribution (LC-MS/MS); type: in vivo, BALB/c mice; conditions: for concentration at 4 h: BALB/c, mouse, intraperitoneal, 55 mg/kg intraperitoneally, after 4 h
# [2] = test system: CT26 colon cancer xenograft; assay: CT26 xenograft tumor growth assay; type: in vivo, BALB/c mice
# Description: All animal studies and procedures were approved by the Animal Ethics Committee of College of Chemistry and Chemical Engineering, Henan Normal University, China. CT26 cells (ATCC, Rockville, MD, USA) were used for tumor allograft experiments. […] Mice were injected with CT26 cells (1 × 10^7 per mouse) subcutaneously. The diameter of transplanted mouse tumors was measured with vernier calipers. […] The antitumor activity of the tested compounds was evaluated by measuring the tumor diameter. Tumor diameter and body weight were measured every two days. After 15 days, tumor tissues were surgically removed, weighed, and photographed. The tumor volume (TV) was calculated as in Eq. (1):(1) V=1/2×a×b^2 where a and b represent the length and width, respectively. Samples were used for histology. The tumor growth inhibition rate TGI (%) was calculated with Eq. (2):(2) TGI(%)=(1‒Tw/Cw)×100 where Tw and Cw are the average tumor weight on the 15th day for the treatment group and the model group, respectively.
# [3] = Metabolites in mice (LC-QTOF/MS); type: in vivo, BALB/c mice; conditions: 55 mg/kg, mixed plasma 0-24 h
# Description: SPF BALB/c mice were adaptively fed for one week. In the control group, mice received an intravenous injection of an equal volume of solvent. In the Model group, mice received an intravenous injection of 55 mg/kg of 33a. Following administration at time points of 0, 0.25, 0.5, 1, 2, 4, 8, 12, and 24 h, mixed plasma samples were collected from mice in each group. Subsequently, blood metabolites were detected, identified, and analyzed utilizing LC-QTOF/MS technology.
# The ionization mode is Electrospray Ionization in positive mode (ESI+), with an ion source voltage of 5 kV and a temperature set at 550 °C. The collision energy (CE) is 30 eV. The nebulizing gas, gas1 (nebulizer gas), and gas2 (auxiliary gas) are all nitrogen (N2) with their pressures set to 55 psi. The curtain gas (CUR) pressure is 35 psi. The parent ion scan range for the first-order mass spectrum is m/z […] to 1000, and the daughter ion scan range is m/z 50 to 1000. Dynamic Background Subtraction (DBS) is activated. The software used for data acquisition is Analyst® TF 1.8 software.
smiles,measurement,setting,value
CCOC(=O)[C@]1(n2cnc3c(N4CCCCC4)nc(F)nc32)CSC[C@H]1O (racemic) [33a],Death rate,Acute toxicity assay; 90 mg/kg i.p.,0%
same,Number of dead mice,"Acute toxicity assay; 90 mg/kg, ♀",0
same,Number of dead mice,"Acute toxicity assay; 90 mg/kg, ♂",0
same,Death rate,Acute toxicity assay; 260 mg/kg i.p.,0%
same,Number of dead mice,"Acute toxicity assay; 260 mg/kg, ♀",0
same,Number of dead mice,"Acute toxicity assay; 260 mg/kg, ♂",0
same,Death rate,Acute toxicity assay; 350 mg/kg i.p.,10%
same,Number of dead mice,"Acute toxicity assay; 350 mg/kg, ♀",1
same,Number of dead mice,"Acute toxicity assay; 350 mg/kg, ♂",0
same,Death rate,Acute toxicity assay; 450 mg/kg i.p.,20%
same,Number of dead mice,"Acute toxicity assay; 450 mg/kg, ♀",2
same,Number of dead mice,"Acute toxicity assay; 450 mg/kg, ♂",0
same,Death rate,Acute toxicity assay; 600 mg/kg i.p.,60%
same,Number of dead mice,"Acute toxicity assay; 600 mg/kg, ♀",3
same,Number of dead mice,"Acute toxicity assay; 600 mg/kg, ♂",3
same,Death rate,Acute toxicity assay; 800 mg/kg i.p.,100%
same,Number of dead mice,"Acute toxicity assay; 800 mg/kg, ♀",5
same,Number of dead mice,"Acute toxicity assay; 800 mg/kg, ♂",5
same,LD50 at 14 days,"Acute toxicity assay; both sexes, mouse, in vivo, ip, BALB/c mice, intraperitoneal, observed 14 days",553 mg/kg
same,blood-brain barrier passage,"[1]; 55 mg/kg, 4 h",can readily cross the blood‒brain barrier
same,concentration at 4 h,"[1]; brain, read-out: concentration in brain",87900 ± 21500 ng/g
same,concentration at 4 h,"[1]; heart, read-out: concentration in heart",16900 ± 2990 ng/g
same,concentration at 4 h,"[1]; kidney, read-out: concentration in kidney",70400 ± 5140 ng/g
same,concentration at 4 h,"[1]; liver, read-out: concentration in liver",12500 ± 2130 ng/g
same,concentration at 4 h,"[1]; lung, read-out: concentration in lung",38500 ± 4430 ng/g
same,concentration at 4 h,"[1]; spleen, read-out: concentration in spleen",5490 ± 2450 ng/g
same,TGI,[2]; 20 mg/kg i.p. once a day for 14 days,54.74%
same,IHC of tumor tissue,[2]; 55 and 20 mg/kg,"significantly reduce the expression of tumor proliferation markers Ki67 and PCNA, increase the expression of cleaved caspase-3, and decrease the expression of c-MYC"
same,effect on body weight,"[2]; 55 and 20 mg/kg i.p., 14 days",did not show an obvious toxic effect on body weight
same,tumor growth,"[2]; 55 and 20 mg/kg i.p., 14 days, tumor volume and weight",significant dose-dependent inhibitory effect on tumor growth
same,H&E staining of major organs,"[2]; heart, liver, spleen, lung, kidney",the major organs showed no apparent evidence of injury or abnormality
same,metabolic pathways,[3],hydrolysis of carboxylic acid ester and glucuronidation
